From patent publication US20220169628A1 (University of Florida Research Foundation, Incorporated, priority 2019, published 2022)
Where two headings read alike, the source gives them in different places.

What was measured:
Type in all cases: cell-based
human platelets [1] = assay: Human platelet viability, MTS assay; conditions: for IC50: Platelet, MTS assay (Table 2, FIG. 2)
Procedure: FIG. 2. depicts dose response curves of ABT-263 and Compound 53 in MOLT-4 T-ALL cells & human platelets determined by MTS assay.
(§1) Cancer cells from different tissue origins including acute lymphoblastic leukemia (MOLT4 and RS4; 11), small cell lung cancer (NCI-H146 or simply H146), and multiple myeloma (EJM and H929) were incubated with increasing concentrations of Examples 1-21 or ABT-263 for 72 h. Cell viability was measured by tetrazolium-based MTS assay. 5×10^4 to 1×10^5 suspension cells or 3×10^3 to 5×10^3 adherent cells were seeded and treated in 96-well plates for 72 h. The EC50 values of individual agents were calculated with GraphPad Prism.

MOLT-4 cells [2] = assay: Cell viability assay, MTS, 72 h, MOLT-4; conditions: for IC50: Homo sapiens
Procedure: as §1

human platelets [3] = assay: Human platelet viability, 48 h; conditions: Platelet
RS4;11 cells = assay: Cell viability assay, MTS, 48 h, RS4;11; conditions: Homo sapiens, RS4-11, 48 h
Procedure: (§2) Acute lymphoblastic leukemia cells (MOLT-4 and RS4; 11) or small cell lung cancer (NCI-H146 or simply H146) were incubated with increasing concentrations of Bcl-xL degraders for 48 h. Cell viability was measured by tetrazolium-based MTS assay.

MOLT-4 cells [4] = assay: Cell viability assay, MTS, 48 h, MOLT-4; conditions: Homo sapiens, MOLT-4, 48 h
Procedure: as §2

NCI-H146 cells = assay: Cell viability assay, MTS, 48 h, NCI-H146; conditions: Homo sapiens
Procedure: as §2

RS4 cells = assay: Cell viability assay, MTS, 72 h, RS4;11; conditions: Homo sapiens
Procedure: as §1

caspase-3 and PARP = assay: Downstream apoptotic mechanism, western blot of caspase-3 and PARP in MOLT-4 cells; conditions: after 16 h treatment
Procedure: […] At the end of incubation, cells were harvested for western blot analysis of cleaved and full length caspase-3 and poly (ADP) ribose polymerase (PARP). The antibodies for cleaved caspase-3 (Cat #9661) and PARP (Cat #9532) were purchased from Cell Signaling Technology.

Bcl-xL [5] = molecular target: T1, Bcl-xL (Homo sapiens, UniProt Q07817); assay: Protein degradation assay in human platelets (western blot); set-up: endogenous in cells; host or cells: human platelets; conditions: 16 h
Procedure: MOLT4 cells and human platelets were incubated with increasing concentrations of test compounds for 16 h. The cells were harvested and lysed in RIPA lysis buffer supplemented with protease and phosphatase inhibitor cocktails. An equal amount of protein (20 μg/lane) was resolved on a pre-cast 4-20% SDS-PAGE gel. Proteins were subsequently transferred to NOVEX PVDF membranes by electrophoresis. The membranes were blocked in blocking buffer (5% non-fat dry milk in TBS-T), and incubated with primary antibodies (at optimized concentrations) overnight at 4° C. After three washings in TBS-T, the membranes were incubated with an appropriate HRP-conjugated secondary antibody for 1 h at room temperature. After extensive washing for three times, the proteins of interest were detected with ECL western blotting detection reagents and recorded with autoradiography (Pierce Biotech, Rockford, Ill., USA). […] The relative band intensity was measured using ImageJ software and normalized to b-actin. The DC50 (concentration with 50% degradation) was calculated using GraphPad Prism.
MOLT-4 cells and human platelets were incubated with increasing concentrations of test compounds for 16 h. […] After extensive washing for three times, the proteins of interest were detected with ECL western blotting detection reagents and recorded with autoradiography (Pierce Biotech, Rockford, Ill., USA). […]

Bcl-xL [6] = molecular target: T1, Bcl-xL; assay: Protein degradation assay in MOLT-4 cells (western blot); set-up: endogenous in cells; host or cells: MOLT-4 cells; conditions: 16 h, read-out: DC50 (concentration with 50% degradation) of Bcl-xL
Procedure: MOLT4 cells and human platelets were incubated with increasing concentrations of test compounds for 16 h. The cells were harvested and lysed in RIPA lysis buffer supplemented with protease and phosphatase inhibitor cocktails. An equal amount of protein (20 μg/lane) was resolved on a pre-cast 4-20% SDS-PAGE gel. Proteins were subsequently transferred to NOVEX PVDF membranes by electrophoresis. The membranes were blocked in blocking buffer (5% non-fat dry milk in TBS-T), and incubated with primary antibodies (at optimized concentrations) overnight at 4° C. After three washings in TBS-T, the membranes were incubated with an appropriate HRP-conjugated secondary antibody for 1 h at room temperature. After extensive washing for three times, the proteins of interest were detected with ECL western blotting detection reagents and recorded with autoradiography (Pierce Biotech, Rockford, Ill., USA). The primary antibodies for Bcl-xL (Cat #2762), Bcl-2 (Cat #2872), Mcl-1 (Cat #5453) and β-actin (Cat #4970) were purchased from Cell Signaling technology. The relative band intensity was measured using ImageJ software and normalized to b-actin. The DC50 (concentration with 50% degradation) was calculated using GraphPad Prism.
MOLT-4 cells and human platelets were incubated with increasing concentrations of test compounds for 16 h. The cells were harvested and lysed in RIPA lysis buffer supplemented with protease and phosphatase inhibitor cocktails. An equal amount of protein (20 μg/lane) was resolved on a pre-cast 4-20% SDS-PAGE gel. Proteins were subsequently transferred to NOVEX PVDF membranes by electrophoresis. […] After extensive washing for three times, the proteins of interest were detected with ECL western blotting detection reagents and recorded with autoradiography (Pierce Biotech, Rockford, Ill., USA). […] The relative band intensity was measured using ImageJ software and normalized to β-actin. The DC50 was calculated using GraphPad Prism.

[7] = MOLT-4 T-ALL cells, MTS assay (Table 2, FIG. 2)
[8] = 48 h, read-out: RS4, 11 IC50 (nM, 48 h)
[9] = 48 h, read-out: MOLT-4 IC50 (nM, 48 h)

T1 sequence (Q07817 whole entry): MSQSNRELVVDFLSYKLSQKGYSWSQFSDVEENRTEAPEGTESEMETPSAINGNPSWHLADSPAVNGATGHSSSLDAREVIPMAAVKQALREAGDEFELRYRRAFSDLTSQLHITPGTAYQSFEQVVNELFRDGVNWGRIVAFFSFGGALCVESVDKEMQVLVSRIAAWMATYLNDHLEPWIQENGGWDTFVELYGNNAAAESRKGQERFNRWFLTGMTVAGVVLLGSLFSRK

IC50 (MOLT-4 cells [2]; [7]) [nM] | IC50 (RS4;11 cells; [8]) [nM] | IC50 (MOLT-4 cells [4]; [9]) [nM] | IC50 (NCI-H146 cells) [nM] | IC50 (RS4 cells) [nM] | IC50 (MOLT-4 cells [2]; MOLT-4 cells, 72 h, MTS) [nM] | Bcl-xL levels in human platelets (Bcl-xL [5]) | DC50 (Bcl-xL [6]) [nM] | IC50 (RS4;11 cells; 48 hours, read-out: IC50 (48 hours) RS4;11) [nM] | IC50 (MOLT-4 cells [4]; 48 hours, read-out: IC50 (48 hours) MOLT-4) [nM] | SMILES | IC50 (human platelets [1]) [nM] | IC50 (human platelets [3]) [µM] | effects on human platelets compared with ABT-263 (human platelets [1]; FIG. 2) | potency in MOLT-4 cells compared with ABT-263 (MOLT-4 cells [2]; MOLT-4 cells, FIG. 2) | cleavage of caspase-3 and PARP (caspase-3 and PARP)
202 | 35 | 201 | 36 |  |  |  |  |  |  | CC1(C)CCC(c2ccc(Cl)cc2)=C(CN2CCN(c3ccc(C(=O)NS(=O)(=O)c4ccc(N[C@H](CCN5CCOCC5)CSc5ccccc5)c(S(=O)(=O)C(F)(F)F)c4)cc3)CC2)C1 [ABT-263, reference compound] | 190 | 0.5 |  |  | 
36 |  |  |  | 17.4 | 36 |  |  |  |  | Cc1ncsc1-c1ccc([C@H](C)NC(=O)[C@@H]2C[C@@H](O)CN2C(=O)[C@@H](NC(=O)CCCCCCCCC(=O)NCC2(C)CCC(c3ccc(Cl)cc3)=C(CN3CCN(c4ccc(C(=O)NS(=O)(=O)c5ccc(N[C@H](CCN6CCOCC6)CSc6ccccc6)c(S(=O)(=O)C(F)(F)F)c5)cc4)CC3)C2)C(C)(C)C)cc1 (stereo partly drawn) [Compound 53, N^1-((4′-chloro-4-methyl-6-((4-(4-(((4-(((R)-4-morpholino-1-(phenylthio)butan-2-yl)amino)-3-((trifluoromethyl)sulfonyl)phenyl)sulfonyl)carbamoyl)phenyl)piperazin-1-yl)methyl)-2,3,4,5-tetrahydro-[1,1′-biphenyl]-4-yl)methyl)-N^10—((S)-1-((2S,4R)-4-hydroxy-2-(((S)-1-(4-(4-methylthiazol-5-yl)phenyl)ethyl)carbamoyl)pyrrolidin-1-yl)-3,3-dimethyl-1-oxobutan-2-yl)decanediamide] | 1550 |  | substantially less effects on human platelets than ABT-263 | more potent than ABT-263 | 
 | 22.2 | 31 | 88 |  |  | did not affect Bcl-xL levels | 21.5 |  |  | Cc1ncsc1-c1ccc([C@H](C)NC(=O)[C@@H]2C[C@@H](O)CN2C(=O)[C@@H](NC(=O)CCCCCCCCC(=O)NCC2(C)CCC(c3ccc(Cl)cc3)=C(CN3CCN(c4ccc(C(=O)NS(=O)(=O)c5ccc(N[C@H](CCN6CCOCC6)CSc6ccccc6)c(S(=O)(=O)C(F)(F)F)c5)cc4)CC3)C2)C(C)(C)C)cc1 (stereo partly drawn) [degrader #5, N1-((4′-chloro-4-methyl-6-((4-(4-(((4-(((R)-4-morpholino-1-(phenylthio)butan-2-yl)amino)-3-((trifluoromethyl)sulfonyl)phenyl)sulfonyl)carbamoyl)phenyl)piperazin-1-yl)methyl)-2,3,4,5-tetrahydro-[1,1′-biphenyl]-4-yl)methyl)-N10-((S)-1-((2S,4R)-4-hydroxy-2-(((S)-1-(4-(4-methylthiazol-5-yl)phenyl)ethyl)carbamoyl)pyrrolidin-1-yl)-3,3-dimethyl-1-oxobutan-2-yl)decanediamide] |  | 3.5 |  |  | induced cleavage of caspase-3 and PARP
 | 497 | 154 | 314 |  |  |  | 101 | > 500 | 150 to 500 | Cc1ncsc1-c1ccc([C@H](C)NC(=O)[C@@H]2C[C@@H](O)CN2C(=O)[C@@H](NC(=O)CCCCCCCCC(=O)NC[C@@]2(C)CCC(c3ccc(Cl)cc3)=C(CN3CCN(c4ccc(C(=O)NS(=O)(=O)c5ccc(N[C@H](CCN6CCOCC6)CSc6ccccc6)c(S(=O)(=O)C(F)(F)F)c5)cc4)CC3)C2)C(C)(C)C)cc1 [degrader #41, N1-(((S)-4′-chloro-4-methyl-6-((4-(4-(((4-(((R)-4-morpholino-1-(phenylthio)butan-2-yl)amino)-3-((trifluoromethyl)sulfonyl)phenyl)sulfonyl)carbamoyl)phenyl)piperazin-1-yl)methyl)-2,3,4,5-tetrahydro-[1,1′-biphenyl]-4-yl)methyl)-N10-((S)-1-((2S,4R)-4-hydroxy-2-(((S)-1-(4-(4-methylthiazol-5-yl)phenyl)ethyl)carbamoyl)pyrrolidin-1-yl)-3,3-dimethyl-1-oxobutan-2-yl)decanediamide] |  | 10 |  |  | 
